Measurements taken from publication PMC7811009, “Oxytocin modulates local topography of human functional connectome in healthy men at rest” (Communications Biology, 2021).

How the values were obtained:
[1] = system: human functional connectome at rest; experiment: Resting-state BOLD-fMRI, graph theory: nodal betweenness-centrality (mesoscale); 40 IU intranasal (spray/nebuliser) or 10 IU intravenous, about 57 min post-dosing, 16 healthy men; format: in vivo; conditions: post-hoc paired t-tests, FDR
Protocol: (§1) Each experimental session began with the treatment administration protocol that lasted about 22 min in total (Fig. 8, lower panel). After drug administration, participants were guided to the MRI scanner, where eight pulsed continuous arterial spin labelling scans (each lasting approx. eight minutes) were acquired, spanning 15–104 min post-dosing (data reported elsewhere[11]). The 8-min resting state BOLD-fMRI scan reported herein was obtained at about 57 ± 3.38 min post-dosing. Participants were instructed to lie still and maintain their gaze on a centrally placed fixation cross during scanning. We assessed participants’ levels of alertness (anchors: alert-drowsy) and excitement (anchors: excited-calm) using visual analogue scales (0–100) at three different time-points during the scanning session to evaluate subjective drug effects across time (data reported elsewhere[11]).
(§2) We used the CONN functional connectivity toolbox[97] to generate brain-wide functional connectivity matrices for each subject/session. […] The default atlas of the CONN toolbox includes 132 non-overlapping ROIs spanning cortical and subcortical areas and the cerebellum using a combination of the cortical and subcortical areas from the FSL Harvard-Oxford atlas and of the cerebellar areas of the Automatic Anatomical Labelling atlas (Supplementary data 1 for a detailed description). […] Finally, we normalized our correlation measures to z-scores using the Fisher’s r-z transform per subject/session.
We then used our z-transformed connectivity matrices to construct brain graphs representing a functional connectivity network for each subject/session. We used an undirected signed weighted approach in which we kept information about the sign and weight of each of the connections between the nodes (ROIs) of our network, without making assumptions about the direction of this relationship. These connectivity matrices represent fully connected networks, where each node corresponds to each of the ROIs we used to build the functional connectivity matrices and each edge represents the z-transformed value of functional connectivity between a pair of nodes. […] We used the fully weighted networks to calculate equi-sparse networks by retaining a fixed percentage (K) of the total amount of possible edges. In order to determine systematic pharmacological effects on the network’s topological organization that are not dependent on the choice of an arbitrary threshold, we chose a range of sparsity thresholds from 5 to 34%, with steps of 1%, based on previous evidence showing the characteristic small-world behaviour of human brain networks is most consistently observed for this range[30]. For each network and sparsity level, we used the MATLAB functions provided with the Brain Connectivity Toolbox[16] to compute four global and regional network metrics: global efficiency, node degree, local efficiency and betweenness-centrality. Details on the calculation of each of these metrics have been described elsewhere. The combination of these four metrics allows us to test for treatment effects on connectivity at both global and regional levels, taking into account complementary aspects of functional integration of information exchange within the brain network. […]
(§3) For each of the graph metrics analysed, we summarized the different values over the range of thresholds using the area under the curve (AUC), instead of applying multiple testing for each metric/threshold. […]

[2] = system: human functional connectome at rest; experiment: Resting-state BOLD-fMRI, graph theory: nodal local efficiency (mesoscale); same doses, time and cohort; format: in vivo; conditions: post-hoc paired t-tests, FDR
Protocol: as §1, §2
We then used our z-transformed connectivity matrices to construct brain graphs representing a functional connectivity network for each subject/session. We used an undirected signed weighted approach in which we kept information about the sign and weight of each of the connections between the nodes (ROIs) of our network, without making assumptions about the direction of this relationship. […]
as §3

[3] = cited from earlier work
Excerpt: It is not yet clear which precise mechanisms mediate the effects of intravenous oxytocin on brain function. […] At least three mechanisms have been postulated. First, it is possible that the direct peripheral effects of oxytocin on oxytocin receptors expressed in vegetative territories, such as the heart, may be an indirect source of changes in the brain.

[4] = system: amygdala/parahippocampal gyrus and anterior cingulate; conditions: same dose of intravenous oxytocin (10 IU), same cohort; cited from earlier work
Excerpt: Our second key finding was the observation that the regional effects of exogenous oxytocin, compared to placebo, vary as a function of the route/method of administration. Particularly striking was the observation that the intravenous administration of oxytocin induced widespread changes in regional functional connectivity across many areas potentially relevant to explaining the effects of intranasal oxytocin on human behaviour and which have been classically ascribed to direct nose-to-brain transport. One of these areas is the amygdala, where we found decreased betweenness-centrality after int ...

CC[C@H](C)[C@@H]1NC(=O)[C@H](Cc2ccc(O)cc2)NC(=O)[C@@H](N)CSSC[C@@H](C(=O)N2CCC[C@H]2C(=O)N[C@@H](CC(C)C)C(=O)NCC(N)=O)NC(=O)[C@H](CC(N)=O)NC(=O)[C@H](CCC(N)=O)NC1=O [oxytocin]
Nodes with decreased betweenness-centrality compared to placebo ([1]; intravenous, 10 IU): decreased the betweenness-centrality of the right amygdala and the anterior parahipoccampal gyrus | Nodes with increased betweenness-centrality compared to placebo ([1]; intravenous, 10 IU): increased the betweenness-centrality of the right and left occipital poles, left postcentral gyrus, right supramarginal gyrus and left and right cerebellum (areas 4–5 and area 10, respectively) | Nodes with increased betweenness-centrality compared to placebo ([1]; nebuliser, 40 IU intranasal): increased the betweenness-centrality of the temporo-occipital area of the left middle temporal gyrus and the left cerebellum (area 7) | Nodes with decreased betweenness-centrality compared to placebo ([1]; spray, 40 IU intranasal): decreased the betweenness-centrality of the precuneus, right posterior supramarginal and middle temporal gyri, the left anterior middle temporal gyrus and the right cerebellum (area 9) | Nodes with increased betweenness-centrality compared to placebo ([1]; spray, 40 IU intranasal): increased the betweenness-centrality of the right orbitofrontal cortex, left lateral occipital cortex, right temporal occipital fusiform cortex and left occipital pole | Nodes with increased local efficiency compared to placebo ([2]; intravenous, 10 IU): increased the local efficiency of the right superior frontal gyrus, right frontal pole, anterior cingulate, left cuneal cortex, right posterior supramarginal gyrus and the brainstem | Nodes with increased local efficiency compared to placebo ([2]; nebuliser, 40 IU intranasal): increased the local efficiency of the right cuneal cortex and the left posterior supramarginal gyrus | Nodes with increased local efficiency compared to placebo ([2]; spray, 40 IU intranasal): increased the local efficiency of the right superior frontal gyrus, right anterior and posterior medial temporal gyri, right posterior superior temporal gyrus, right cuneal cortex and left cerebellum (area 1) | Amount crossing the blood–brain barrier (BBB) [3]: very small amounts | Effects on heart-rate or heart-rate variability ([3]; same doses/methods and cohort of participants): absence of effects | Effect on rCBF [4]: decreases rCBF in the amygdala/parahippocampal gyrus and in the anterior cingulate
